According to patent US10144733B2, “Naphthyridine derivatives as alpha v beta 6 integrin antagonists for the treatment of E.G. fibrotic diseases” (GlaxoSmithKline Intellectual Property Development Limited, priority 2014, dated 2018):

What was measured:
Format in all cases: cell-based
αvβ5 = target: T1, αvβ5 (Homo sapiens, UniProt P06756+P18084); test: Cell Adhesion Assay K562-αvβ5 (Vitronectin); details: K562-αvβ5 cells, ligand Vitronectin, 2 mM MgCl2; read-out: mean affinity (pIC50) αvβ5 (converted)
T1 construct: expressed in transfected cells; host or cells: K562
Protocol: (§1) The following cell lines were used, with ligands in brackets: K562-α5β1 (Fibronectin), K562-αvβ3 (LAP-b1), K562-αvβ5 (Vitronectin), K562-αvβ6 (LAP-b1), K562-αvβ8 (LAP-b1). The divalent cation used to facilitate adhesion was 2 mM MgCl2. Adhesion was quantified by cell labelling with the fluorescent dye BCECF-AM (Life Technologies), where cell suspensions at 3×10^6 cells/mL were incubated with […] of 30 mM BCECF-AM at 37° C. for 10 minutes, before dispensing into the assay plate. At the assay conclusion cells that adhered were lysed using 50 μL/well of 0.5% Triton X-100 in H2O to release fluorescence. Fluorescence intensity was detected using an Envision® plate reader (Perkin Elmer). For active antagonists in the assay, data were fitted to a 4 parameter logistic equation for IC50 determinations.

αvβ3 = target: T2, αvβ3 (Homo sapiens, UniProt P05106+P06756); test: Cell Adhesion Assay K562-αvβ3 (LAP-b1); details: K562-αvβ3 cells, ligand LAP-b1, 2 mM MgCl2; read-out: mean affinity (pIC50) αvβ3 (converted)
T2 construct: expressed in transfected cells; host or cells: K562
Protocol: as §1

αvβ8 = target: T3, αvβ8 (Homo sapiens, UniProt P06756+P26012); test: Cell Adhesion Assay K562-αvβ8 (LAP-b1); details: K562-αvβ8 cells, ligand LAP-b1, 2 mM MgCl2; read-out: mean affinity (pIC50) αvβ8 (converted)
T3 construct: expressed in transfected cells; host or cells: K562
Protocol: as §1

αvβ6 = target: T4, αvβ6 (Homo sapiens, UniProt P06756+P18564); test: Cell Adhesion Assay K562-αvβ6 (LAP-b1); details: K562-αvβ6 cells, ligand LAP-b1, 2 mM MgCl2; read-out: mean affinity (pIC50) αvβ6 (converted)
T4 construct: expressed in transfected cells; host or cells: K562
Protocol: as §1

αvβ1 = αvβ1 (Homo sapiens, UniProt P05556+P06756); test: Cell Adhesion Assay αvβ1; details: 2 mM MgCl2, cell line and ligand for αvβ1 not given, read-out: mean affinity (pIC50) αvβ1 (converted)

T2 sequence (P06756 31-889 limits assumed): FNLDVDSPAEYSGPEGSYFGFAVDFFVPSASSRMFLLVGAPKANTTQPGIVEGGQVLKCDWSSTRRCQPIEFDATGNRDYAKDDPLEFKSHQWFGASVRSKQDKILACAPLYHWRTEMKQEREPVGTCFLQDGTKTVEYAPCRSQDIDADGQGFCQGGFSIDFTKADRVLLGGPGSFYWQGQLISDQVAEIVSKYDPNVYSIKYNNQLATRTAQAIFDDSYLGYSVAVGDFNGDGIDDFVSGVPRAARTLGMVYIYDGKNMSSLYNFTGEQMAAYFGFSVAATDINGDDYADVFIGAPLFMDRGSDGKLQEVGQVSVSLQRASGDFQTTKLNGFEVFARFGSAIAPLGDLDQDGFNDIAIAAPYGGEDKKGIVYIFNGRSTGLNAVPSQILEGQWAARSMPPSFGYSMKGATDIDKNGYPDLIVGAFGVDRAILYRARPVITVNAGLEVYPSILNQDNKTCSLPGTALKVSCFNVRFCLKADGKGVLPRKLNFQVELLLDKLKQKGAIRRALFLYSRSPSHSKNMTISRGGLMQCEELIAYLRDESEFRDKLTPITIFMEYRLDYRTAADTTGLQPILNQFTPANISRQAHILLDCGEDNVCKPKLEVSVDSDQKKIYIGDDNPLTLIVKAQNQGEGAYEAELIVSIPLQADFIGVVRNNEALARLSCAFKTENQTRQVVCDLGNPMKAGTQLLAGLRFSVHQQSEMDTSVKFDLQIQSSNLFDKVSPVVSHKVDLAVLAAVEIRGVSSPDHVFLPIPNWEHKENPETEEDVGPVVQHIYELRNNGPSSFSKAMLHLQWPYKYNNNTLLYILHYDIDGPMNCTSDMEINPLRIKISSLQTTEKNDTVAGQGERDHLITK
T2 sequence (P06756 891-1048 partner limits assumed): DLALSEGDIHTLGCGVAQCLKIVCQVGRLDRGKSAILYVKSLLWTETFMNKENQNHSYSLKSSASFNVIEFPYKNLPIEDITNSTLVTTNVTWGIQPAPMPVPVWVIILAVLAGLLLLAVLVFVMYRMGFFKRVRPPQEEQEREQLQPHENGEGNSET
T2 sequence (P05106 27-788): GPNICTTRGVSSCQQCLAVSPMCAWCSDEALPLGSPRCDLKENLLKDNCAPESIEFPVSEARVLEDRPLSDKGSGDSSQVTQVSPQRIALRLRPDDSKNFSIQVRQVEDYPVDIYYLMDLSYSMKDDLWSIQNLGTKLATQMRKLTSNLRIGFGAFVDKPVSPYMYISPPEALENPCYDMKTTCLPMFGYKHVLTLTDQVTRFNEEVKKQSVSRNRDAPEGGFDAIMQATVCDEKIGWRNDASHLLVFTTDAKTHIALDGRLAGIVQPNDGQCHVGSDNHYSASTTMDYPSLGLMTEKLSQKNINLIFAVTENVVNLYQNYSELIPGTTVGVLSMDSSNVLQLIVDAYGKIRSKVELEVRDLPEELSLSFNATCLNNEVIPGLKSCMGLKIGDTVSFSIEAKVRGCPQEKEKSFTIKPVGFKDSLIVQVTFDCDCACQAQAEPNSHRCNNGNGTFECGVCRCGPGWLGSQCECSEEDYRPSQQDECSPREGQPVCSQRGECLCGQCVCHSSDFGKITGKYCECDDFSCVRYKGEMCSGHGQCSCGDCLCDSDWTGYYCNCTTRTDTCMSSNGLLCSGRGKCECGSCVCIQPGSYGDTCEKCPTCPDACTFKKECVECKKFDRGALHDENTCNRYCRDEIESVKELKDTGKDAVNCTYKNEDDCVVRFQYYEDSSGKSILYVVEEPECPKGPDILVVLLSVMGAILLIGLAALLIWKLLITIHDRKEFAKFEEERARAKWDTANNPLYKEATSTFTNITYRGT
T3 sequence (P06756 31-889 limits assumed): as the sequence (P06756 31-889 limits assumed) above
T3 sequence (P06756 891-1048 partner limits assumed): as the sequence (P06756 891-1048 partner limits assumed) above
T3 sequence (P26012 43-769): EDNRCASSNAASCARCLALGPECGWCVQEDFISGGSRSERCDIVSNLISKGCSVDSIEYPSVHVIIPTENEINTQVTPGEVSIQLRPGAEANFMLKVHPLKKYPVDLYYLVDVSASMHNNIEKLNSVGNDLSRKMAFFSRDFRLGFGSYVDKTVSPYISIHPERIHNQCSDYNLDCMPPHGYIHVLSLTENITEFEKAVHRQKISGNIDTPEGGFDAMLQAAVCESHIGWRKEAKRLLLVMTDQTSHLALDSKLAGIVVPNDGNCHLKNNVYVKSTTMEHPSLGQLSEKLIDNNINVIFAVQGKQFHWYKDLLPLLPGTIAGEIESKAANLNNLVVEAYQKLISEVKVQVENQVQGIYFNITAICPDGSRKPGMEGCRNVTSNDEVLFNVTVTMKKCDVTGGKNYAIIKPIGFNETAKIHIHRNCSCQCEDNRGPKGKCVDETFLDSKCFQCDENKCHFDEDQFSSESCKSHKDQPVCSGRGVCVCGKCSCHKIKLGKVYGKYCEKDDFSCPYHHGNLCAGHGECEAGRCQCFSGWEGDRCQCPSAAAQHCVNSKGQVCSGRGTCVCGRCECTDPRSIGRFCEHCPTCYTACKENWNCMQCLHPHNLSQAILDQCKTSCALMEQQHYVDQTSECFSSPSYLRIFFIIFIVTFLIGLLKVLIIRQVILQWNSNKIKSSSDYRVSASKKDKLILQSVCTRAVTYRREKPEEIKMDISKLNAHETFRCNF
T1 sequence (P06756 31-889 limits assumed): as the sequence (P06756 31-889 limits assumed) above
T1 sequence (P06756 891-1048 partner limits assumed): as the sequence (P06756 891-1048 partner limits assumed) above
T1 sequence (P18084 24-799): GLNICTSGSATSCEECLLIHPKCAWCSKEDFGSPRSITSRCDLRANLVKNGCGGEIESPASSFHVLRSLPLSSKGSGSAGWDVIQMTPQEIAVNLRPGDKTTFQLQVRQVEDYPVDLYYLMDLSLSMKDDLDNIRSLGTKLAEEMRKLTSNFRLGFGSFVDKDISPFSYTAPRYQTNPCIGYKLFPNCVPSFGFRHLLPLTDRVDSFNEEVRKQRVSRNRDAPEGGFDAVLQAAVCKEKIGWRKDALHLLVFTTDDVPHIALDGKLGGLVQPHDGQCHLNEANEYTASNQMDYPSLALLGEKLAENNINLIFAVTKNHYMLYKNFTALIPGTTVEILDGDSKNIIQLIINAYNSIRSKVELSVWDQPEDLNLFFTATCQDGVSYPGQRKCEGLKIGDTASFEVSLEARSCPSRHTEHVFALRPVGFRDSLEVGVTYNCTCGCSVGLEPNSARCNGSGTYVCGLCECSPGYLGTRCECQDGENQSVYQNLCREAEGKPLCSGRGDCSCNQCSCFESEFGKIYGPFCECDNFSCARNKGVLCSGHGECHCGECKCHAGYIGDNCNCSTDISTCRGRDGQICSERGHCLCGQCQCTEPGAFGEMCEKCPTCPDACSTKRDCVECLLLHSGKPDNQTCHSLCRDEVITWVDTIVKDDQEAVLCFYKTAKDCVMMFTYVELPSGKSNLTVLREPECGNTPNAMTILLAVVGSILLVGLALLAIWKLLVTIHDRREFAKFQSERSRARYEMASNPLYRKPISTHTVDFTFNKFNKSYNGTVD
T4 sequence (P06756 31-889 limits assumed): as the sequence (P06756 31-889 limits assumed) above
T4 sequence (P06756 891-1048 partner limits assumed): as the sequence (P06756 891-1048 partner limits assumed) above
T4 sequence (P18564 22-788): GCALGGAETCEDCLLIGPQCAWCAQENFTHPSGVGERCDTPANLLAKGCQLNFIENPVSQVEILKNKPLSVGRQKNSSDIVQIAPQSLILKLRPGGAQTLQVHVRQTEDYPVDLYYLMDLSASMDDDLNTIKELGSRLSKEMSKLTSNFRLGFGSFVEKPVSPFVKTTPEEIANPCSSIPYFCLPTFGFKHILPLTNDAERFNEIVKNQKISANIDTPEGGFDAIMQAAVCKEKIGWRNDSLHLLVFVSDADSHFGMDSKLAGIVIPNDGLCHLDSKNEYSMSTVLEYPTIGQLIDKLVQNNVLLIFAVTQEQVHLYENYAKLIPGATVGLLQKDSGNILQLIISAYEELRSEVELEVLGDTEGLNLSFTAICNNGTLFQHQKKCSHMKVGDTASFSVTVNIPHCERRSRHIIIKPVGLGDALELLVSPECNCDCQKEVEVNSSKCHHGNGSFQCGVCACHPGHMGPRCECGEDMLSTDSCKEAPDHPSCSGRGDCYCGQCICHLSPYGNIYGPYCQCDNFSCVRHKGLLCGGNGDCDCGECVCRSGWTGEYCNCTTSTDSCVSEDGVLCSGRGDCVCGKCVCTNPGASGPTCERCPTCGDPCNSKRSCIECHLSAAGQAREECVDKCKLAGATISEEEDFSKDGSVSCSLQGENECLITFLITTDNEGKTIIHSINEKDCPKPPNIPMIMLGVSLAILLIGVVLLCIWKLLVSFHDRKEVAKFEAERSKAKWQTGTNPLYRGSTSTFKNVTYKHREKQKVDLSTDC

| Structure (SMILES) | IC50 (αvβ5) [nM] | IC50 (αvβ3) [nM] | IC50 (αvβ8) [nM] | IC50 (αvβ6) [nM] | IC50 (αvβ1) [nM] |
| --- | --- | --- | --- | --- | --- |
| Cc1cc(CO)nn1-c1cccc(C(CC(=O)O)CN2CC[C@@H](CCc3ccc4c(n3)NCCC4)C2)c1 (single isomer, unassigned) [Example 10] | 158 | 631 | 10 | 2.51 | – |
| O=C(O)CC(CN1CC[C@@H](CCc2ccc3c(n2)NCCC3)C1)c1cccc(-n2ccc(C(F)(F)F)n2)c1 (stereo partly drawn) [Example 7, 4-((R)-3-(2-(5,6,7,8-tetrahydro-1,8-naphthyridin-2-yl)ethyl)pyrrolidin-1-yl)-3-(3-(3-(trifluoromethyl)-1H-pyrazol-1-yl)phenyl) butanoic acid] | 50.1 | 631 | 25.1 | 6.31 | – |
| Cc1cc(CF)nn1-c1cccc(C(CC(=O)O)CN2CC[C@@H](CCc3ccc4c(n3)NCCC4)C2)c1 (stereo partly drawn) [Example 11, 3-(3-(3-(fluoromethyl)-5-methyl-1H-pyrazol-1-yl)phenyl)-4-((R)-3-(2-(5,6,7,8-tetrahydro-18-naphthyridin-2-yl)ethyl)pyrrolidin-1-yl)butanoic acid] | 158 | 1260 | 15.8 | 3.16 | 63.1 |
| Cc1cc(C(C)(C)O)nn1-c1cccc(C(CC(=O)O)CN2CC[C@@H](CCc3ccc4c(n3)NCCC4)C2)c1 (single isomer, unassigned) [Example 6] | 200 | 3980 | 50.1 | 12.6 | – |
